Results on 3 compounds are retold here after ChEMBL document CHEMBL5715954, “Silencing c-Myc translation as a therapeutic strategy through targeting PI3Kδ and CK1ε in hematological malignancies” (Blood, 2017).

What all share (set-up): scale not given: the % may be the effect or the level left
Assay [1] has as its target Casein kinase I isoform gamma-3 (Homo sapiens) (UniProt Q9Y6M4). Briefly: Inhibition of human CK1g3 assessed as enzyme activity at 1 uM using KRRRAL[pS]VASLPGL as substrate preincubated for 20 mins followed by [gamma-33P]-ATP addition and measured after 120 mins by radiometric Hot-SpotSM Kinase assay relative to control.
Assay [2] concerns the target Tyrosine-protein kinase JAK2 (Homo sapiens) (UniProt O60674). Briefly: Inhibition of human JAK2 assessed as enzyme activity at 1 uM using poly[Glu:Tyr] (4:1) as substrate preincubated for 20 mins followed by [gamma-33P]-ATP addition and measured after 120 mins by radiometric Hot-SpotSM Kinase assay relative to control.
Assay [3] concerns the target T1, Mitogen-activated protein kinase kinase kinase 3 (Homo sapiens) (UniProt Q99759).
T1 sequence (whole entry): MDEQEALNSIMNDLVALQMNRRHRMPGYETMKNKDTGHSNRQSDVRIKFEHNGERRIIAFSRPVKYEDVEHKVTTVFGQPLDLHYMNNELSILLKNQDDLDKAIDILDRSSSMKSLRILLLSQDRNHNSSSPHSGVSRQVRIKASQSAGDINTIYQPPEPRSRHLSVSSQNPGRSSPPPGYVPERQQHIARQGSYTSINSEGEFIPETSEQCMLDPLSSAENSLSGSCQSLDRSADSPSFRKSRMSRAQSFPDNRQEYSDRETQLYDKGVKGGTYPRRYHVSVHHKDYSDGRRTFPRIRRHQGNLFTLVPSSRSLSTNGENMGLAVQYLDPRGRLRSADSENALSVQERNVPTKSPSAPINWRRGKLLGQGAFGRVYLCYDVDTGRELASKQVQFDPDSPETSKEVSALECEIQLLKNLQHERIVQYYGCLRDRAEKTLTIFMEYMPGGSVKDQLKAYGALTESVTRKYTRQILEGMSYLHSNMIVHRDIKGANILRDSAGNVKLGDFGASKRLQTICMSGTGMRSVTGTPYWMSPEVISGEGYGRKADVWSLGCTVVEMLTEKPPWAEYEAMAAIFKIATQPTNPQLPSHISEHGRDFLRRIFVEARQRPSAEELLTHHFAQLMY
Briefly: Inhibition of human MEKK3 assessed as enzyme activity at 1 uM using myelin basic protein as substrate preincubated for 20 mins followed by [gamma-33P]-ATP addition and measured after 120 mins by radiometric Hot-SpotSM Kinase assay relative to control.

The target of assay [4] is T2, Serine/threonine-protein kinase NLK (Homo sapiens) (UniProt Q9UBE8).
T2 sequence (whole entry): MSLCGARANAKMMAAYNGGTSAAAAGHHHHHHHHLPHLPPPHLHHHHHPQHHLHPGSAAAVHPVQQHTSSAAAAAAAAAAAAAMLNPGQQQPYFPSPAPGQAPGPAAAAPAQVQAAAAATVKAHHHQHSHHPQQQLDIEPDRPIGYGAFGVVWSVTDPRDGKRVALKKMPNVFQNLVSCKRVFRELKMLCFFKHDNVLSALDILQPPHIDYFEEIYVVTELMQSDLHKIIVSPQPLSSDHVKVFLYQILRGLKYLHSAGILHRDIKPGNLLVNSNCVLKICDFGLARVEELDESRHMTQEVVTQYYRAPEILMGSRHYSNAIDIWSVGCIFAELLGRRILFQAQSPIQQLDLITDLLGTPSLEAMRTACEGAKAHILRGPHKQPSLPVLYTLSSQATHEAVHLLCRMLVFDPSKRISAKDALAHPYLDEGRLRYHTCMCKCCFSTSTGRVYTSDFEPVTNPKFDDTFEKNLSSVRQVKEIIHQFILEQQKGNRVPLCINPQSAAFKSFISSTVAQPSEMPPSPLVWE
Briefly: Inhibition of human NLK assessed as enzyme activity at 1 uM using myelin basic protein as substrate preincubated for 20 mins followed by [gamma-33P]-ATP addition and measured after 120 mins by radiometric Hot-SpotSM Kinase assay relative to control.

Assay [5] addresses T3, 3-phosphoinositide-dependent protein kinase 1 (Homo sapiens) (UniProt O15530).
T3 sequence (whole entry): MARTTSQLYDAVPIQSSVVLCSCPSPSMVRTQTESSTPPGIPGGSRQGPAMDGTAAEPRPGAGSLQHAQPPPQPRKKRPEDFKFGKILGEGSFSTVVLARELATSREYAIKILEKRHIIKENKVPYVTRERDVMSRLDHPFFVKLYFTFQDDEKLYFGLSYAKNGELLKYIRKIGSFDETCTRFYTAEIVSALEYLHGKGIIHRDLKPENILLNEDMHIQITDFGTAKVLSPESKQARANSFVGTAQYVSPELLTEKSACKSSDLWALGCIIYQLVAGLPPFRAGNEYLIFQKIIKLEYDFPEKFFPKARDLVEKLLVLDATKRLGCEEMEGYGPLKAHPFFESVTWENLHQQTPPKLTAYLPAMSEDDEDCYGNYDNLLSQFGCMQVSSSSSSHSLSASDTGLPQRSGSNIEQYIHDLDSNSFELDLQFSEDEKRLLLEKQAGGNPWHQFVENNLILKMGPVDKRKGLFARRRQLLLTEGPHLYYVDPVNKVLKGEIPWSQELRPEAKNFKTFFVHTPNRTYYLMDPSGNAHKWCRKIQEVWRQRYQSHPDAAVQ
Briefly: Inhibition of human PDK1 assessed as enzyme activity at 1 uM using KTFCGTPEYLAPEVRREPRILSEEEQEMFRDFDYIADWC as substrate preincubated for 20 mins followed by [gamma-33P]-ATP addition and measured after 120 mins by radiometric Hot-SpotSM Kinase assay relative to control.

The target in assay [6] is T4, NUAK family SNF1-like kinase 2 (Homo sapiens) (UniProt Q9H093).
T4 sequence (whole entry): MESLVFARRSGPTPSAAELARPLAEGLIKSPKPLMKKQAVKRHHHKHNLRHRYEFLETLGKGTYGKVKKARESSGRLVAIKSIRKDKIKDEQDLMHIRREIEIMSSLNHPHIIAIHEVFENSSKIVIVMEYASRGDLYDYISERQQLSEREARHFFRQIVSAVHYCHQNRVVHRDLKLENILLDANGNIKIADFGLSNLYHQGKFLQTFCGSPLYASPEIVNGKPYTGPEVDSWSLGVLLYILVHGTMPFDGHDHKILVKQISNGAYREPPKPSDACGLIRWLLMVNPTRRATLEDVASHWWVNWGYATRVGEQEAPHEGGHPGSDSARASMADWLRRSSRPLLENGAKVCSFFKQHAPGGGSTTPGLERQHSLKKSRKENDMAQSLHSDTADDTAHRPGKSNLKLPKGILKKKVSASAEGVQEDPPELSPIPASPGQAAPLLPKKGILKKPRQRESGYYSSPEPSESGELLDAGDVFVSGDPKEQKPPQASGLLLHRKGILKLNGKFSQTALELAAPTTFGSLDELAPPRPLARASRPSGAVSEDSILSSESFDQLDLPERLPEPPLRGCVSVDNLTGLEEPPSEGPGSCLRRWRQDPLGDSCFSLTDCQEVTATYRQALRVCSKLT
Briefly: Inhibition of human SNARK assessed as enzyme activity at 1 uM using KKKVSRSGLYRSPSMPENLNRPR as substrate preincubated for 20 mins followed by [gamma-33P]-ATP addition and measured after 120 mins by radiometric Hot-SpotSM Kinase assay relative to control.

Casein kinase I isoform gamma-3 (Homo sapiens), sequence (Q9Y6M4 whole entry, looked up, canonical isoform): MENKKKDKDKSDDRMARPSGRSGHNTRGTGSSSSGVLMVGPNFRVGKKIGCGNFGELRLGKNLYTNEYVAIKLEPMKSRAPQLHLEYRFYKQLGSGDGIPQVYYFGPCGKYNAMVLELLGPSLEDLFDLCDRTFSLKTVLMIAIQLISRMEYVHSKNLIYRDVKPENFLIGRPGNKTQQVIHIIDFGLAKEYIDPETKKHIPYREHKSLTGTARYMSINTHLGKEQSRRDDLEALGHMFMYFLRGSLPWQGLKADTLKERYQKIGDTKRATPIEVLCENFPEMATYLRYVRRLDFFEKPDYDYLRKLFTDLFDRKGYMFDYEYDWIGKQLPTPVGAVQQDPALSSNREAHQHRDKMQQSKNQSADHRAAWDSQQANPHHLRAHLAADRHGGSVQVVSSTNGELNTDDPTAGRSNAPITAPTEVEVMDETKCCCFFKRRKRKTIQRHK
Tyrosine-protein kinase JAK2 (Homo sapiens), sequence (O60674 whole entry): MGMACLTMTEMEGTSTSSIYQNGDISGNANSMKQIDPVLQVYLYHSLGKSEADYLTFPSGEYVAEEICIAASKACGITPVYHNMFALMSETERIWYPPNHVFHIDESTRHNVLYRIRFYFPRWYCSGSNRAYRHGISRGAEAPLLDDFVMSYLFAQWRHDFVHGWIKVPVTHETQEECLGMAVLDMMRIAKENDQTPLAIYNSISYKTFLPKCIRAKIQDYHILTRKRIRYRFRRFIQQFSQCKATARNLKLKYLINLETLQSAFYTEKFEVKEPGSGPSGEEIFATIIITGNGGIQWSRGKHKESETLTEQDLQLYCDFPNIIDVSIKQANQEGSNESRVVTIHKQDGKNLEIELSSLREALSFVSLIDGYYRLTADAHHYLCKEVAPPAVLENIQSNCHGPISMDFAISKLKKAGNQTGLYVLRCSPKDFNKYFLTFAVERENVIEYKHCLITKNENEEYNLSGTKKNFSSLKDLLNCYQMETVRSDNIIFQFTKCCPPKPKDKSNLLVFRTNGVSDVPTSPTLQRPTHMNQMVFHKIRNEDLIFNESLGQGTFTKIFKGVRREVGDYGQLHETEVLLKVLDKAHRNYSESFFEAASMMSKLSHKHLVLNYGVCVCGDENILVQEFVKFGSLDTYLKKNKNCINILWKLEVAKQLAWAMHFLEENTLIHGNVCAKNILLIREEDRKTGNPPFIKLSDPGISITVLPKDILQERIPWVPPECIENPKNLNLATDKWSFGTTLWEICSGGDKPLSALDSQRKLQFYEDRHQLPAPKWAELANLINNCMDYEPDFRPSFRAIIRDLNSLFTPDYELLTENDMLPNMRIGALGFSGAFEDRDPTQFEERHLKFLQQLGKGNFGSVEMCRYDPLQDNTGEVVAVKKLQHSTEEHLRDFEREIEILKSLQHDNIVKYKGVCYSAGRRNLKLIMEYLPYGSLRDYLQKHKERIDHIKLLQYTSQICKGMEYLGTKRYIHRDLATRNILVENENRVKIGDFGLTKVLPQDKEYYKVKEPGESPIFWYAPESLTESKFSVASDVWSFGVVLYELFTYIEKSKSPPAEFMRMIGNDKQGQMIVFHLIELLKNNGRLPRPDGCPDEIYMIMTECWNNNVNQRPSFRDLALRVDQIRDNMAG

With `C[C@H](Nc1ncnc2nc[nH]c12)c1cc2cccc(Cl)c2c(=O)n1-c1ccccc1`, the Activity worked out at 92.9% in assay [1]; 100% in assay [2]; 91.8% in assay [3]; 96.2% in assay [4]; 94.6% in assay [5]; 93.2% in assay [6].
`CC[C@H](Nc1ncnc2[nH]cnc12)c1nc2cccc(F)c2c(=O)n1-c1ccccc1`: the Activity in assay [1] was found to be 93.1%; in assay [2] it was 95.7%; in assay [3] it was 102%; in assay [4], 103%; in assay [5] it was 94.6%; in assay [6] it was 93.2%.
Turning to `CC(C)Oc1ccc(-c2nn([C@@H](C)c3oc4ccc(F)cc4c(=O)c3-c3cccc(F)c3)c3ncnc(N)c23)cc1F` [UMBRALISIB], the Activity in assay [1] worked out at 95.4%; in assay [2], 92%; in assay [3] it was 102%; in assay [4], 98.3%; in assay [5], 92.8%; in assay [6], 95.9%.
